Source: ChEMBL document CHEMBL1127140, “Inhibition of human leukocyte elastase. 7. Inhibition by 6-substituted penicillin amides” (Bioorg Med Chem Lett, 1993)

Legend:
Cricetinae gen. sp. [1] = assay: Tested in vivo for inhibition of hamster lung hemorrhage after intratracheal administration at 2 hr prior to challenge with HLE (human leukocyte elastase); type: functional, Cricetulus griseus
Cricetinae gen. sp. [2] = assay: Tested in vivo for inhibition of hamster lung hemorrhage after intratracheal administration at 1 hr prior to challenge with HLE (human leukocyte elastase); type: functional, Cricetulus griseus
[3] = molecular target: T1, Neutrophil elastase (Homo sapiens) (UniProt P08246)
T1 sequence (whole entry): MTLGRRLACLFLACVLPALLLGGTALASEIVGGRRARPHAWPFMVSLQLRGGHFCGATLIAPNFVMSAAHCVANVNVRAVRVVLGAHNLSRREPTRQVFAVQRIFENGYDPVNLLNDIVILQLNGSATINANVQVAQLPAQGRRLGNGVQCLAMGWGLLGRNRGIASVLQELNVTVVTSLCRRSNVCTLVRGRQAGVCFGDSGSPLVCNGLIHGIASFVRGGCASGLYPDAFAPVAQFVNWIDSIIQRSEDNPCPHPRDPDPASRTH
Description: Inhibition of Elastase using Suc-Ala-Ala-Pro-Ala-pNA as substrate, activity expressed as Kobs/[I] (second order rate constant)

Cricetinae gen. sp. [4] = assay: Tested in vivo for inhibition of hamster lung hemorrhage after intratracheal administration at 3h prior to challenge with HLE(human leukocyte elastase); type: functional, Cricetulus griseus
[5] = Tested for chemical stability of the compound; type: physicochemical
Neutrophil elastase = molecular target: T2, Neutrophil elastase (Homo sapiens, UniProt P08246); assay: Tested in vitro for its inhibitory effect against Elastase using Suc-Ala--Ala-Pro-Ala-pNA as substrate
T2 sequence (P08246 whole entry): T1 sequence (whole entry)

[6] = molecular target: T1, Neutrophil elastase (Homo sapiens); assay: Tested in vitro for its inhibitory effect against Human leukocyte elastase using Suc-Ala--Ala-Pro-Ala-pNA as substrate, activity expressed as Kobs/[I] (second order rate constant)
Cricetinae gen. sp. [7] = assay: Tested in vivo for inhibition of hamster lung hemorrhage after intratracheal administration at 3h prior to challenge with HLE (human leukocyte elastase); type: functional, Cricetulus griseus

Structure (SMILES)	K obs / 1 [3]	half-life [5]	Ki (Neutrophil elastase)	other results
CO[C@H]1C(=O)N2C(C(=O)N3CCC[C@H]3C(=O)O)=C(COC(C)=O)CS(=O)(=O)[C@H]12	3800 M⁻¹ s⁻¹	–	–	Inhibition (Cricetinae gen. sp. [1]): 97%; Inhibition (Cricetinae gen. sp. [2]): 99%; Inhibition (Cricetinae gen. sp. [4]): 78%
CC1(C)[C@H](C(=O)OCc2ccc(C(=O)O)cc2)N2C(=O)[C@H](NC(=O)C(F)(F)F)[C@H]2[S+]1[O-] (stereo partly drawn)	–	1.4 h	1.5 µM	–
CN(CC(=O)O)C(=O)[C@@H]1N2C(=O)[C@H](NC(=O)C(F)(F)F)[C@H]2S(=O)(=O)C1(C)C	–	4.8 h	14 µM	–
CC1(C)[C@H](C(=O)OCc2ccc(C(=O)O)cc2)N2C(=O)[C@H](NC(=O)C(F)(F)F)[C@@H]2[S+]1[O-] (stereo partly drawn)	4900 M⁻¹ s⁻¹	5.3 h	–	–
CN(Cc1ccc(C(=O)O)cc1)C(=O)[C@@H]1N2C(=O)[C@H](NC(=O)C(F)(F)F)[C@H]2S(=O)(=O)C1(C)C	5400 M⁻¹ s⁻¹	4.2 h	–	–
CN(Cc1ccc(C(=O)O)cc1)C(=O)[C@@H]1N2C(=O)[C@H](NC(=O)C(F)(F)F)[C@H]2[S+]([O-])C1(C)C (stereo partly drawn)	60 M⁻¹ s⁻¹	8.2 h	–	–
CN(C(=O)C(F)(F)F)[C@H]1C(=O)N2[C@@H](C(=O)OCc3ccc(C(=O)O)cc3)C(C)(C)S(=O)(=O)[C@H]12	5700 M⁻¹ s⁻¹	–	–	–
CO[C@H]1C(=O)N2[C@@H](C(=O)N(C)CC(=O)O)C(C)(C)S(=O)(=O)[C@H]12	–	–	53 µM	–
CC1(C)[C@H](C(=O)OCc2ccc(C(=O)O)cc2)N2C(=O)[C@H](NC(=O)C(F)(F)F)[C@H]2S1(=O)=O	89000 M⁻¹ s⁻¹	1.1 h	–	–
CN(Cc1ccc(C(=O)O)cc1)C(=O)[C@@H]1N2C(=O)[C@H](NC(=O)C(F)(F)F)[C@@H]2[S+]([O-])C1(C)C (stereo partly drawn)	1100 M⁻¹ s⁻¹	8.6 h	–	–
CCO[C@H]1C(=O)N2[C@@H](C(=O)OCc3ccc(C(=O)O)cc3)C(C)(C)S(=O)(=O)[C@H]12	–	–	1.3 µM	–
CN(CC(=O)O)C(=O)[C@@H]1N2C(=O)[C@@H](NC(=O)C(F)(F)F)[C@H]2S(=O)(=O)C1(C)C	–	–	50 µM	–
CO[C@H]1C(=O)N2[C@@H](C(=O)OCc3ccc(C(=O)O)cc3)C(C)(C)S(=O)(=O)[C@H]12	–	< 1 h	–	K obs / 1 [6]: 5600 M⁻¹ s⁻¹
CO[C@H]1C(=O)N2C(C(=O)N(C)CC(=O)O)=C(COC(C)=O)CS(=O)(=O)[C@H]12	–	–	–	Inhibition (Cricetinae gen. sp. [1]): 80%; Inhibition (Cricetinae gen. sp. [2]): 97%; Inhibition (Cricetinae gen. sp. [7]): 54%
CC1(C)[C@H](C(=O)OCc2ccc(C(=O)O)cc2)N2C(=O)[C@@H](NC(=O)C(F)(F)F)[C@H]2S1(=O)=O	7100 M⁻¹ s⁻¹	1.1 h	–	–
CC1(C)[C@H](C(=O)N2CCC[C@@H]2C(=O)O)N2C(=O)[C@@H](NC(=O)C(F)(F)F)[C@H]2S1(=O)=O	–	–	22 µM	–
CC1(C)[C@H](C(=O)N2CCC[C@@H]2C(=O)O)N2C(=O)[C@H](NC(=O)C(F)(F)F)[C@H]2S1(=O)=O	26 M⁻¹ s⁻¹	–	–	–
CN(Cc1ccc(C(=O)O)cc1)C(=O)[C@@H]1N2C(=O)[C@@H](NC(=O)C(F)(F)F)[C@H]2S(=O)(=O)C1(C)C	275 M⁻¹ s⁻¹	4.5 h	–	–
